Measured values: patent US20130183384A1, “IMMEDIATE RELEASE MULTI UNIT PELLET SYSTEM” (BOEHRINGER INGELHEIM INTERNATIONAL GMBH, priority 2011, published 2013)

Experiment: Sensitivity of the drug substance to hydrolysis
Format: physicochemical
Details: especially at low pH
Description: Any formulation containing both organic acid as well as drug substance in close contact is therefore at a very high risk to decomposition, particularly in the presence of humidity. Therefore e.g. tartaric acid and active ingredient are kept separate in the formulation until the moment of application. A multiparticulate pellet approach is chosen. The drug substance is layered from an isopropanolic suspension onto seal coated spherical tartaric acid starter cores with approximately 0.6-0.8 mm diameter (FIG. 3 Structure of dabigatran etexilate pellets'.

SMILES: CCCCCCOC(=O)N=C(N)c1ccc(NCc2nc3cc(C(=O)N(CCC(=O)OCC)c4ccccn4)ccc3n2C)cc1 [Dabigatran etexilate mesilate, dabigatran etexilate methansulfonate]
- sensitivity to hydrolysis: sensitive to hydrolysis especially at low pH
